For the assay, the target named is BTK (Homo sapiens (Human), UniProt Q06187). The experiment in a line: Z'-LYTE kinase inhibition assay against BTK. It is filed as biochemical. The conditions noted are these: for inhibition at 0.1 µM: compound at 100 nM, ATP concentration at Km; for IC50: series of concentrations, GraphPad Prism 5. The method in brief:
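Z′-LYTE FRET readout: 1.04-10.4 ng BTK with 2 μM Tyr 01 peptide, ATP at Km, in 50 mM HEPES pH 7.5, 10 mM MgCl2, 1 mM EGTA, 0.01% BRIJ-35, 1% DMSO. 60 min kinase reaction at room temperature, then 60 min development; IC50 from 10-point, 3-fold titrations.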

Where only a bound is given, the exact number is not on record here.

The term inhibition denotes the share of the control response that was lost under treatment. Low values mean a response near the control, high ones a response far below the control. One may read the IC50 as the concentration needed to halve the response being measured. Lower therefore signals higher potency.

Chain of BTK (Q06187 whole entry): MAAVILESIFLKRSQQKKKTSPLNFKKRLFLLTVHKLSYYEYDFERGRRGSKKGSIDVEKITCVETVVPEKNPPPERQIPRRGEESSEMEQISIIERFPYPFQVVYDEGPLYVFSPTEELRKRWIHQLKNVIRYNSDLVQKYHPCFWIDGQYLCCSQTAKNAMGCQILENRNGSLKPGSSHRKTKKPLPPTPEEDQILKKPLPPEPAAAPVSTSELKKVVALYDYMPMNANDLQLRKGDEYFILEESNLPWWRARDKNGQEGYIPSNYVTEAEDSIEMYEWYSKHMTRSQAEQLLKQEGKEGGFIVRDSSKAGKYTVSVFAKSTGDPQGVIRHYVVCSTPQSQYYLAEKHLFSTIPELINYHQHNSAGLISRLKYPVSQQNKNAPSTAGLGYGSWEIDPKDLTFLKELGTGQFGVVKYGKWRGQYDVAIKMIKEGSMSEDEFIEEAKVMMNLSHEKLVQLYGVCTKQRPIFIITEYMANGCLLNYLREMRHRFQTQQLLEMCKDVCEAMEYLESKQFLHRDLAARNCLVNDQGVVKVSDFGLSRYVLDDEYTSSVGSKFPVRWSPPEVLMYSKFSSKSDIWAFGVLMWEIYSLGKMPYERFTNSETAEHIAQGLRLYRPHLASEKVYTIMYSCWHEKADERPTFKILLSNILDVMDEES

With `C=CC(=O)Nc1cccc(-c2cc(-c3ccc(Oc4ccccn4)cc3F)c(N)c3cncnc23)c1` [C173, N-(3-(5-amino-6-(2-fluoro-4-(pyridin-2-yloxy)phenyl)quinazolin-8-yl)phenyl)acrylamide], the inhibition at 0.1 µM was less than 50%.

In turn, `CC#CC(=O)N1CCC(c2nc(-c3ccc(C(=O)Nc4cc(OC)ccn4)cc3)n3c(N)nccc23)C1` (stereo not shown) [C241, 4-(5-amino-1-(1-(but-2-ynoyl)pyrrolidin-3-yl)imidazo[1,5-c]pyrimidin-3-yl)-N-(4-methoxypyridin-2-yl)benzamide] showed an IC50 of less than 100 nM.

`CC#CC(=O)N1CCC(c2nc(-c3ccc(Oc4ccccn4)c(OC)c3)n3c(N)nccc23)C1` (stereo not shown) [C213, 1-(3-(5-amino-3-(3-methoxy-4-(pyridin-2-yloxy)phenyl)imidazo[1,5-c]pyrimidin-1-yl)pyrrolidin-1-yl)but-2-yn-1-one]: the inhibition at 0.1 µM was greater than 50%.

`C=CC(=O)N1CCC(c2cc(-c3ccc(Oc4cccc(F)c4)nc3)cc3cncnc23)C1` (stereo not shown) [C095, 1-(3-(6-(6-(3-fluorophenoxy)pyridin-3-yl)quinazolin-8-yl)pyrrolidin-1-yl)prop-2-en-1-one]: the inhibition at 0.1 µM is less than 50%.

For `CC#CC(=O)N1CCC(c2nc(-c3ccc(Oc4ccccn4)c(F)c3)n3c(N)nccc23)C1` (stereo not shown) [C209, 1-(3-(5-amino-3-(3-fluoro-4-(pyridin-2-yloxy)phenyl)imidazo[1,5-c]pyrimidin-1-yl)pyrrolidin-1-yl)but-2-yn-1-one], the inhibition at 0.1 µM was greater than 50%.

In turn, `C=CC(=O)N1CCC(c2nc(-c3ccc(Oc4ncccc4F)c(OC)c3)n3c(N)nccc23)C1` (stereo not shown) [C233, 1-(3-(5-amino-3-(4-((3-fluoropyridin-2-yl)oxy)-3-methoxyphenyl)imidazo[1,5-c]pyrimidin-1-yl)pyrrolidin-1-yl)prop-2-en-1-one] registered an IC50 of less than 100 nM.

For the compound `C=CC(=O)Nc1cccc(-c2cc(-c3ccc(C(=O)Nc4ccccn4)c(OC)c3)cc3cncnc23)c1` [C141, 4-(8-(3-acrylamidophenyl)quinazolin-6-yl)-2-methoxy-N-(pyridin-2-yl)benzamide], the inhibition at 0.1 µM was less than 50%.

For `C=CC(=O)N1CCCC(n2c(-c3ccccc3)nc3cncnc32)C1` (stereo not shown) [C012, 1-(3-(8-phenyl-9H-purin-9-yl)piperidin-1-yl)prop-2-en-1-one], the inhibition at 0.1 µM was less than 50%.

With `C=CC(=O)Nc1cccc(-c2cc(-c3ccc(C(=O)Nc4cc(C(N)=O)ccn4)cc3)cc3cncnc23)c1` [C138, 2-(4-(8-(3-acrylamidophenyl)quinazolin-6-yl)benzamido)isonicotinamide], the inhibition at 0.1 µM is less than 50%.

For `C=CC(=O)Nc1cccc(-c2cc(-c3ccc(C(=O)Nc4cc(C(N)=O)ccn4)cc3Cl)cc3cncnc23)c1` [C134, 2-(4-(8-(3-acrylamidophenyl)quinazolin-6-yl)-3-chlorobenzamido)isonicotinamide], the inhibition at 0.1 µM is greater than 50%.

The compound `C=CC(=O)Nc1cccc(-c2cc(-c3ccc(C)nc3)cc3cnc(N)nc23)c1` [C038, N-(3-(2-amino-6-(6-methylpyridin-3-yl)quinazolin-8-yl)phenyl)acrylamide] gave an inhibition at 0.1 µM greater than 50% and an IC50 of less than 100 nM.

`C=CC(=O)N1CCC(c2nc(-c3ccc(C(=O)Nc4cc(C(F)(F)F)ccn4)cc3)n3c(N)nccc23)C1` (stereo not shown) [C242, 4-(1-(1-acryloylpyrrolidin-3-yl)-5-amino-imidazo[1,5-c]pyrimidin-3-yl)-N-(4-(trifluoromethyl)pyridin-2-yl)benzamide] gave an IC50 of less than 100 nM.

`C=CC(=O)Nc1cccc(-c2cc(-c3ccc(Oc4ccccn4)cc3Cl)c(N)c3cncnc23)c1` [C203, N-(3-(5-amino-6-(2-chloro-4-(pyridin-2-yloxy)phenyl)quinazolin-8-yl)phenyl)acrylamide] came in with an inhibition at 0.1 µM greater than 50%.

As to `C=CC(=O)N1CCC(c2nc(-c3ccc(Oc4cc(C(F)(F)F)ccn4)c(OC)c3)n3c(N)nccc23)C1` (stereo not shown) [C221, 1-(3-(5-amino-3-(3-methoxy-4-((4-(trifluoro-methyl)pyridin-2-yl)oxy)phenyl)imidazo[1,5-c]pyrimidin-1-yl)pyrrolidin-1-yl)prop-2-en-1-one], the inhibition at 0.1 µM is greater than 50%.

`C=CC(=O)Nc1cccc(-c2cc(-c3ccc(Oc4ncccc4Cl)cc3F)cc3cncnc23)c1` [C106, N-(3-(6-(4-((3-chloropyridin-2-yl)oxy)-2-fluorophenyl)quinazolin-8-yl)phenyl)acrylamide] displayed an inhibition at 0.1 µM greater than 50% and a half-inhibitory concentration (IC50) of less than 100 nM.

The compound `C=CC(=O)Nc1cccc(-c2cc(-c3ccc(Nc4cccc(C(F)(F)F)c4)cc3)cc3cncnc23)c1` [C019, N-(3-(6-(4-((3-(trifluoromethyl)phenyl)amino)phenyl)quinazolin-8-yl)phenyl)acrylamide] displayed an inhibition at 0.1 µM of less than 50%.

`C=CC(=O)N1CCC(c2cc(-c3ccc(Oc4cc(C(F)(F)F)ccn4)cc3)cc3cnc(N)nc23)C1` (stereo not shown) [C104, 1-(3-(2-amino-6-(4-((4-(trifluoromethyl)pyridin-2-yl)oxy)phenyl)quinazolin-8-yl)pyrrolidin-1-yl)prop-2-en-1-one]: the inhibition at 0.1 µM was less than 50%.

With `C=CC(=O)N1CCC(n2c(-c3ccccc3)nc3cnc(N)nc32)C1` (stereo not shown) [C015, 1-(3-(2-amino-8-phenyl-9H-purin-9-yl)pyrrolidin-1-yl)prop-2-en-1-one], the inhibition at 0.1 µM was less than 50%.

On to `C=CC(=O)N1CCC(c2cc(-c3ccc(C(=O)Nc4cccc(C(F)(F)F)c4)cc3)cc3cncnc23)C1` (stereo not shown) [C068, 4-(8-(1-acryloylpyrrolidin-3-yl)quinazolin-6-yl)-N-(3-(trifluoromethyl)phenyl)benzamide], for which the inhibition at 0.1 µM is less than 50%.

The compound “4-(5-Amino-1-(1-(but-2-ynoyl)pyrrolidin-3-yl)imidazo[1,5-c]pyrimidin-3-yl)-N-(pyridin-2-yl)-3-(trifluoromethyl)benzamide [C248]” registered an IC50 of less than 100 nM.

`C=CC(=O)Nc1cccc(-c2cc(-c3ccc(C(=O)Nc4cccnc4)cc3)cc3cncnc23)c1` [C113, 4-(8-(3-acrylamidophenyl)quinazolin-6-yl)-N-(pyridin-3-yl)benzamide] registered an inhibition at 0.1 µM of less than 50%.

On to `C=CC(=O)N1CCC(c2cc(-c3ccc(C(=O)Nc4cccc(C(F)(F)F)c4)cc3)n3cnccc23)C1` (stereo not shown) [C058, 4-(5-(1-acryloylpyrrolidin-3-yl)pyrrolo[1,2-c]pyrimidin-7-yl)-N-(3-(trifluoro-methyl)phenyl)benzamide], for which the inhibition at 0.1 µM is less than 50%.

As to `C=CC(=O)N1CCC(n2c(-c3ccccc3F)nc3cncnc32)C1` (stereo not shown) [C032, 1-(3-(8-(2-fluorophenyl)-9H-purin-9-yl)pyrrolidin-1-yl)prop-2-en-1-one], the inhibition at 0.1 µM is less than 50%.

In the case of `C=CC(=O)Nc1cccc(-c2cc(-c3ccc(Oc4cc(C(F)(F)F)ccn4)cc3)cc3cncnc23)c1` [C175, N-(3-(6-(4-((4-(trifluoromethyl)pyridin-2-yl)oxy)phenyl)quinazolin-8-yl)phenyl)acrylamide], the inhibition at 0.1 µM was greater than 50% and the IC50 is less than 100 nM.

Compound `C=CC(=O)N1CCC(c2cc(-c3ccc(C(=O)Nc4ccccn4)cc3F)n3cnccc23)C1` (stereo not shown) [C126, 4-(5-(1-acryloylpyrrolidin-3-yl)pyrrolo[1,2-c]pyrimidin-7-yl)-3-fluoro-N-(pyridin-2-yl)benzamide] came in with an inhibition at 0.1 µM of less than 50%.

Compound `C=CC(=O)N1CCC(c2cc(-c3ccc(C(=O)Nc4cc(C#N)ccn4)cc3)cc3cncnc23)C1` (stereo not shown) [C124, 4-(8-(1-acryloylpyrrolidin-3-yl)quinazolin-6-yl)-N-(4-cyanopyridin-2-yl)benzamide] came in with an inhibition at 0.1 µM of less than 50%.

Consider `C=CC(=O)Nc1cccc(-c2cc(-c3ccc(C(=O)Nc4cc(C(F)(F)F)ccn4)c(F)c3)cc3cncnc23)c1` [C127, 4-(8-(3-acrylamidophenyl)quinazolin-6-yl)-2-fluoro-N-(4-(trifluoromethyl)pyridin-2-yl)benzamide], for which the inhibition at 0.1 µM is less than 50%.

`C=CC(=O)N1CCC(c2nc(-c3ccc(Oc4ncccc4C(F)(F)F)c(F)c3)n3c(N)nccc23)C1` (stereo not shown) [C223, 1-(3-(5-amino-3-(3-fluoro-4-((3-(trifluoro-methyl)pyridin-2-yl)oxy)phenyl)imidazo[1,5-c]pyrimidin-1-yl)pyrrolidin-1-yl)prop-2-en-1-one] had an inhibition at 0.1 µM greater than 50%.

`C=CC(=O)N1CCC(c2cc(-c3ccc(C(=O)Nc4cc(OC)ccn4)c(F)c3)n3cnccc23)C1` (stereo not shown) [C148, 4-(5-(1-acryloylpyrrolidin-3-yl)pyrrolo[1,2-c]pyrimidin-7-yl)-2-fluoro-N-(4-methoxypyridin-2-yl)benzamide] returned an inhibition at 0.1 µM of less than 50%.

`C=CC(=O)N1CCC(c2cc(-c3cccnc3)cc3cncnc23)C1` (stereo not shown) [C043, 1-(3-(6-(pyridin-3-yl)quinazolin-8-yl)pyrrolidin-1-yl)prop-2-en-1-one] displayed an inhibition at 0.1 µM of less than 50%.

`C=CC(=O)N1CCC(c2cc(-c3ccc(C(=O)Nc4cccc(C(F)(F)F)c4)nc3)cc3cncnc23)C1` (stereo not shown) [C093, 5-(8-(1-acryloylpyrrolidin-3-yl)quinazolin-6-yl)-N-(3-(trifluoromethyl)phenyl)picolinamide]: the inhibition at 0.1 µM is less than 50%.

`C=CC(=O)N1CCCC(c2cc(-c3cccc(Nc4cccc(C(F)(F)F)c4)c3)cc3cncnc23)C1` (stereo not shown) [C029, 1-(3-(6-(3-((3-(trifluoromethyl)phenyl)amino)phenyl)quinazolin-8-yl)piperidin-1-yl)prop-2-en-1-one] displayed an inhibition at 0.1 µM of less than 50%.

With `CC#CC(=O)N1CCC(c2nc(-c3ccc(Oc4ncccc4C#N)cc3)n3c(N)nccc23)C1` (stereo not shown) [C229, 2-(4-(5-amino-1-(1-(but-2-ynoyl)pyrrolidin-3-yl)imidazo[1,5-c]pyrimidin-3-yl)phenoxy)nicotinonitrile], the 50% inhibitory concentration (IC50) was less than 100 nM.

In the case of `CC#CC(=O)N1CCC(c2nc(-c3ccc(Oc4cc(OC)ccn4)cc3)n3c(N)nccc23)C1` (stereo not shown) [C214, 1-(3-(5-amino-3-(4-((4-methoxypyridin-2-yl)oxy)phenyl)imidazo[1,5-c]pyrimidin-1-yl)pyrrolidin-1-yl)but-2-yn-1-one], the inhibition at 0.1 µM was greater than 50%.

The values above are taken from patent publication US10544106B2, “Certain chemical entities, compositions, and methods” (NeuPharma, Inc., priority 2016, dated 2020).
